19 molecules from PubChem BioAssay AID1259408 (Genetic Toxicology Data Bank (GENE-TOX), 2018) can be followed below.

Active and inactive are the calls of the source. How the calls were made is not given here.

In this data set the test system is GENE-TOX genotoxicity assays, various organisms and cells. In words: GENE-TOX mutagenicity studies. To be noted: for call: Assay Type: In vivo carcinogenicity studies.
Where [1] appears, read: Species/Cell Type: Allium cepa, Assay Type: Chromosome aberrations, Assay Code: ALC-, Evaluation Type: Evaluation A (Pre-1980).
Setting [2] is: Species/Cell Type: Drosophila melanogaster, Assay Type: Sex-linked recessive lethal gene mutation, Assay Code: SRLT, Evaluation Type: Evaluation A (Pre-1980).
[3] abbreviates: Species/Cell Type: Arabidopsis species, Assay Type: Gene mutation, Assay Code: ARM+, Evaluation Type: Evaluation A (Pre-1980).
Where [4] appears, read: Species/Cell Type: Saccharomyces cerevisiae, Assay Type: Reverse gene mutation, Assay Code: YER+, Evaluation Type: Evaluation A (Pre-1980).
Where [5] appears, read: Species/Cell Type: Salmonella typhimurium (one or more of the five standard strains: TA98, TA100, TA1535, TA1537, and TA1538), Assay Type: Histidine reverse gene mutation, Ames assay, Assay Code: SAL+, Evaluation Type: Evaluation A (Pre-1980).

Regarding `Cc1ccc(C(C)C)c(O)c1`, the mutagenic call is, setting by setting: under setting [1], “inactive; negative”; under setting [2], “no conclusion”.

Take `COS(=O)(=O)OC`: the mutagenic call by setting is: under setting [3], “active; positive”; (Species/Cell Type: Aspergillus nidulans, Assay Type: Forward gene mutation, Assay Code: ASF+, Evaluation Type: Evaluation A (Pre-1980)) “active; positive”; (Species/Cell Type: Chinese hamster ovary (CHO) cells, Assay Type: Forward gene mutation at the HPRT locus, Assay Code: CHO+D, Dose Response: With dose response, Evaluation Type: Evaluation A (Pre-1980)) “active; positive”; (Species/Cell Type: Drosophila melanogaster, Assay Type: Aneuploidy, partial sex chromosome loss, chromosome aberrations, Assay Code: DAP-M, Evaluation Type: Evaluation A (Pre-1980)) “inactive; negative”; (Species/Cell Type: Drosophila melanogaster, Assay Type: Aneuploidy, whole sex chromosome loss, chromosome aberrations, Assay Code: DAC+M, Evaluation Type: Evaluation A (Pre-1980)) “active; positive”; (Species/Cell Type: Drosophila melanogaster, Assay Type: Sex-linked recessive lethal gene mutation, Assay Code: SRL+, Evaluation Type: Evaluation A (Pre-1980)) “active; positive”. The mutagenic call (Species/Cell Type: Drosophila melanogaster, Sex: Male, Assay Type: Heritable translocation test, chromosome aberrations, Assay Code: DHT+, Evaluation Type: Evaluation A (Pre-1980)) was “active; positive”; the mutagenic call (Species/Cell Type: Escherichia coli polA (W3119 vs P3478), Assay Type: Rec-assay, DNA effects (bacterial DNA repair), Assay Code: RE1+, Evaluation Type: Evaluation A (Pre-1980)) was “active; positive”; the mutagenic call (Species/Cell Type: Human, Assay Type: Sister-chromatid exchange (SCE) in vitro, Assay Code: SC1+D, Dose Response: With dose response, Evaluation Type: Evaluation A (Pre-1980)) was “active; positive”; the mutagenic call (Species/Cell Type: Nonhuman, Assay Type: Chromosome aberrations in vitro, Assay Code: CY&+, Evaluation Type: Evaluation A (Pre-1980)) is “active; positive”; the mutagenic call (Species/Cell Type: Nonhuman, Assay Type: Sister-chromatid exchange (SCE) in vitro, Assay Code: SC2+, Evaluation Type: Evaluation A (Pre-1980)) is “active; positive”; the mutagenic call under setting [4] is “active; positive”. Further, the mutagenic call by setting is: (Species/Cell Type: Salmonella typhimurium (one or more of the five standard strains: TA98, TA100, TA1535, TA1537, and TA1538), Assay Type: Histidine reverse gene mutation, Ames assay, Assay Code: SALT, Evaluation Type: Evaluation A (Pre-1980)) “no conclusion”; (Species/Cell Type: Salmonella typhimurium, Assay Type: Forward and reverse gene mutation, host-mediated assay, Assay Code: HMA+, Evaluation Type: Evaluation A (Pre-1980)) “active; positive”; (Species/Cell Type: Schizosaccharomyces pombe, Assay Type: Reverse gene mutation, Assay Code: YEZ+, Evaluation Type: Evaluation A (Pre-1980)) “active; positive”. The call (Species/Cell Type: Nonhuman, Assay Code: CCG+, Evaluation Type: Evaluation A (Pre-1980)) is “active; positive”.

For the molecule `C#CC(OC(=O)NC1CCCCC1)(c1ccccc1)c1ccccc1`, the mutagenic call by setting is: (Species/Cell Type: Human diploid fibroblasts, Assay Type: Unscheduled DNA synthesis (UDS) in vitro, DNA effects, Assay Code: UDHT, Evaluation Type: Evaluation A (Pre-1980)) “no conclusion”; under setting [5], “active; positive”.

`Cc1c2ccccc2cc2c3c(ccc12)[C@@H](O)[C@H](O)C=C3`: the mutagenic call (Species/Cell Type: Chinese hamster lung (V79) cells, Assay Type: Forward gene mutation at the HPRT or ouabain locus, Assay Code: V79+, Evaluation Type: Evaluation A (Pre-1980)) was “active; positive”. The call (Species/Cell Type: Nonhuman, Assay Code: CCG+L, Evaluation Type: Evaluation A (Pre-1980)) was “active; positive”.

On to `OCC(S)CS` (stereo not drawn), for which, under “Species/Cell Type: Escherichia coli polA (W3119 vs P3478), Assay Type: Rec-assay, DNA effects (bacterial DNA repair), Assay Code: RE1-, Evaluation Type: Evaluation A (Pre-1980)”, the mutagenic call is “inactive; negative”.

For the molecule `CCCCN(COC(C)=O)N=O`, the mutagenic call is, setting by setting: under setting [5], “active; positive”; (Species/Cell Type: Syrian hamster embryo (SHE) cells, Assay Type: Cell transformation, clonal assay, Assay Code: CTC+, Evaluation Type: Evaluation A (Pre-1980)) “active; positive”.

As for `CN(N=O)C(=O)C(=O)N(C)N=O`, the mutagenic call by setting is: under setting [3], “active; positive”; under setting [4], “active; positive”.

In the case of `Nc1ncnc2nc[nH]c12`, the mutagenic call by setting is: (Species/Cell Type: Allium cepa, Assay Type: Chromosome aberrations, Assay Code: ALC+D, Dose Response: With dose response, Evaluation Type: Evaluation A (Pre-1980)) “active; positive”; under setting [2], “no conclusion”.

Regarding `Nc1ccc(-c2ccc(F)cc2)cc1`, the mutagenic call (Species/Cell Type: Mouse embryo (AKR/ME) cells, Assay Type: Cell transformation, Assay Code: CTK+, Evaluation Type: Evaluation A (Pre-1980)) was “active; positive”.

`O=C(OCC1CCN2CCC(OC(=O)c3ccc([N+](=O)[O-])cc3)C12)c1ccc([N+](=O)[O-])cc1` (stereo not drawn): the mutagenic call under setting [1] was “inactive; negative”.

In the case of `CCN(CC)c1ccc(C(=C2C=CC(=[N+](CC)CC)C=C2)c2ccc(S(=O)(=O)O)cc2S(=O)(=O)[O-])cc1`, the mutagenic call (Species/Cell Type: Mammalian polychromatic erythrocytes, Assay Type: Micronucleus test, chromosome aberrations, Assay Code: MNT+, Evaluation Type: Evaluation B (Post-1980)) was “active; positive”.

As to `CCN(CC)c1ccc(N=Nc2ccccc2C(=O)O)cc1`, under setting [2], the mutagenic call is listed as “no conclusion”.

For `Nc1ccc(N)c(Cl)c1`, the call (Species/Cell Type: Nonhuman, Assay Code: CCG-L, Evaluation Type: Evaluation A (Pre-1980)) is “inactive; negative”.

As to `[As]`, the mutagenic call (Species/Cell Type: Human lymphocytes, Assay Type: Sister-chromatid exchange (SCE) in vivo, Assay Code: SCY+, Evaluation Type: Evaluation B (Post-1980)) was “active; positive”.

As to `O=S(=O)(c1ccc(Cl)cc1)c1cc(Cl)c(Cl)cc1Cl`, the mutagenic call (Species/Cell Type: Vicia faba, Assay Type: Chromosome aberrations, Assay Code: VIC+D, Dose Response: With dose response, Evaluation Type: Evaluation A (Pre-1980)) is “active; positive”.

Take `O=c1cc(CO)occ1O`: the mutagenic call (Species/Cell Type: Salmonella typhimurium (one or more of the five standard strains: TA98, TA100, TA1535, TA1537, and TA1538), Assay Type: Histidine reverse gene mutation, Ames assay, Assay Code: SAL+*, Activation: With metabolic activation, Evaluation Type: Evaluation A (Pre-1980)) is “active; positive”.

For `O=Cc1ccccc1`, for the setting “Species/Cell Type: Neurospora crassa, Assay Type: Reverse gene mutation, Assay Code: NER+, Evaluation Type: Evaluation A (Pre-1980)”, the mutagenic call was “active; positive”.

Consider `CC[C@]1(O)CC2CN(CCc3c([nH]c4ccccc34)[C@@](C(=O)OC)(c3cc4c(cc3OC)N(C=O)[C@H]3[C@@](O)(C(=O)OC)[C@H](OC(C)=O)[C@]5(CC)C=CCN6CC[C@]43[C@@H]65)C2)C1` (stereo partly drawn), for which the mutagenic call is, setting by setting: (Species/Cell Type: Human lymphocytes, Assay Type: Sister-chromatid exchange (SCE) in vitro, Assay Code: SCL+, Evaluation Type: Evaluation A (Pre-1980)) “active; positive”; (Species/Cell Type: Human lymphocytes, Assay Type: Sister-chromatid exchange (SCE) in vitro, Assay Code: SCL+, Evaluation Type: Evaluation B (Post-1980)) “active; positive”; (Species/Cell Type: Human lymphocytes, Assay Type: Sister-chromatid exchange (SCE) in vitro, Assay Code: SCLT, Evaluation Type: Evaluation B (Post-1980)) “no conclusion”; (Species/Cell Type: Human, Assay Type: Sister-chromatid exchange (SCE) in vitro, Assay Code: SC1+, Evaluation Type: Evaluation B (Post-1980)) “active; positive”; (Species/Cell Type: Human, Assay Type: Sister-chromatid exchange (SCE) in vitro, Assay Code: SC1T, Evaluation Type: Evaluation B (Post-1980)) “no conclusion”; (Species/Cell Type: Mammalian polychromatic erythrocytes, Assay Type: Micronucleus test, chromosome aberrations, Assay Code: MNT+, Evaluation Type: Evaluation A (Pre-1980)) “active; positive”. Further, the mutagenic call is “inactive; negative” (Species/Cell Type: Mouse (C3H/10T1/2) cells, Assay Type: Cell transformation, Assay Code: CTH-, Evaluation Type: Evaluation A (Pre-1980)); “active; positive” (Species/Cell Type: Nonhuman, Assay Type: Sister-chromatid exchange (SCE) in vitro, Assay Code: SC2+, Evaluation Type: Evaluation B (Post-1980)); “no conclusion” (Species/Cell Type: Nonhuman, Assay Type: Sister-chromatid exchange (SCE) in vivo, Assay Code: SC3T, Evaluation Type: Evaluation B (Post-1980)).

Take `Cc1ccc(N)cc1O`: the mutagenic call (Species/Cell Type: Mammalian polychromatic erythrocytes, Assay Type: Micronucleus test, chromosome aberrations, Assay Code: MNTT, Evaluation Type: Evaluation A (Pre-1980)) is reported as “no conclusion”.
